For series [1] the following is noted: dog, in vivo.
Protocol: Therefore, a study to evaluate four different minocycline periodontal formulations relative to determining minocycline levels in crevicular fluid was conducted in a dog model. The study utilized beagle dogs with surgically created "chronic" intrabony periodontal defects. This model entails the extraction of the two lower fourth premolars and the induction of surgically created intrabony defects at the mesial surface of the first molars and distal surface of the third premolars.
In sequence, the defects were created as follows: First, the lower fourth premolars were extracted, sockets were allowed to heal for one month, and dogs received a full mouth scaling and tooth cleaning. […] Dogs were monitored for an additional four weeks.
For evaluation of crevicular levels of minocycline, dogs were placed under general anesthesia, and the various formulations were administered into the periodontal pockets associated with the created defects. […] The strip was then removed, and the relative amount of fluid was determined by a Periotron 6000 instrument. […]
Strips were assayed for minocycline by a microbiological technique that involves use of the minocycline-susceptible bacterium, Bacillus cereus. […] Zones of inhibited bacterial growth were plotted, and the quantity of minocycline present was determined by comparison with zones obtained with minocycline solutions of known concentration. […]
Series [2] deals with organisms associated with periodontal disease. The following applies: cited from earlier work.

Structures are written as SMILES.

As for `CN(C)c1ccc(O)c2c1C[C@H]1C[C@H]3[C@H](N(C)C)C(O)=C(C(N)=O)C(=O)[C@@]3(O)C(O)=C1C2=O` [minocycline, 7-dimethylamino-6-deoxy-6-demethyltetracycline], the “Periods for which minimum inhibitory concentrations (MIC's) can be achieved” value in series [1] was “up to two”. The “MIC's for organisms associated with periodontal disease” value in series [2] is 0.05 to 1.56 µg/mL.

The record behind these values is patent US5366733A, “Method for the treatment of periodontal disease by sustained delivery of a therapeutic agent to the periodontal pocket, and composition of matter therefor” (priority 1991, dated 1994).
